# Laboratory results from patent US8519123B2, “Pyrrolo[2,1-C][1,4]benzodiazepine linked imidazo[1,5-A]pyridine conjugates as potential antitumour agents and process for the preparation thereof” (Council of Scientific and Industrial Research, priority 2010, dated 2013).
# Columns and labels:
# calf thymus DNA (CT-DNA) = test: Thermal denaturation studies with duplex-form calf thymus DNA (DNA binding affinity); conditions: [PBD]:[DNA] molar ratio 1:5, CT-DNA 100 μM, ligand 20 μM, sodium phosphate buffer pH 7.00; for (ΔTm ° C.) after incubation at 37° C. for 0 h: 0 h incubation at 37° C.; for (ΔTm ° C.) after incubation at 37° C. for 18 h: 18 h incubation at 37° C.
# Method: Compounds have been subjected to thermal denaturation studies with duplex-form calf thymus DNA (CT-DNA) using a modification of a reported procedure (Newman, M. S. Carcinog-compr. Surv. 1976, 1, 203; (b) Hecht, S. S.; Loy, M.; Hoffman, Carcinog-compr. Surv. 1976, 1, 325). Working solutions in aqueous buffer (10 mM NaH2PO4/Na2HPO4, 1 mM Na2EDTA, pH 7.00+0.01) containing CT-DNA (100 μm in phosphate) and the PBD (20 μm) have been prepared by addition of concentrated PBD solutions in DMSO to obtain a fixed [PBD]/[DNA] molar ratio of 1:5. The DNA-PBD solutions have been incubated at 37° C. for 0 and 18 h prior to analysis. Samples have been monitored at 260 nm using a Beckman DU-800 spectrophotometer fitted with high performance temperature controller, and heated at 1° C. min^−1 in the 40-110° C. range. DNA helix→coil transition temperatures (Tm) have been obtained from the maxima in the d(A260)/dT derivative plots. Drug-induced alterations in DNA melting behavior are given by: ΔTm=Tm(DNA+PBD)−Tm(DNA alone), where the Tm value for the PBD-free CT-DNA is 69.1±0.01.
# The DNA binding activity for these novel C8-linked imidazo[1,5-a]pyridine PBD hybrids has been examined by thermal denaturation studies using calf thymus (CT) DNA. […] The data for the compounds 7a-l is included in Table 1 for comparison.
# [1] = test system: breast cancer cell line (MCF-7); test: In vitro cytotoxicity, MTT assay, 48 h continuous drug exposure; type: cell-based, human; conditions: 48 h exposure
# Method: (§1) In vitro biological activity studies were carried out at the pharmacology division, IICT, Hyderabad. The compounds were evaluated for in vitro anticancer activity against five tumour cell lines derived from five cancer types (breast, cervix, mouse melanoma, lung and liver cancer) as shown in Table 2. For each compound, dose response curves for each cell line were measured at a minimum of five concentrations at 10 fold dilutions. A protocol of 48 h continuous drug exposure was used and a MTT assay was used to estimate cell viability or growth. The concentration causing 50% inhibition (IC50) compared with the control was calculated. Compounds 7a-7l have been evaluated for their in vitro cytotoxicity in five cell lines from five human cancer types. The results are expressed as IC50 determined relative to that of untreated control cells (Table-2).
# [2] = test system: cervical cancer cell line (Hela); test: as above; type: cell-based, human; conditions: Hela cells, 48 h exposure
# Method: as §1
# [3] = test system: liver cancer cell line (Hepg2); test: as above; type: cell-based, human; conditions: Hepg2 cells, 48 h exposure
# Method: as §1
# [4] = test system: lung cancer cell line (A549); test: as above; type: cell-based, human; conditions: A549 cells, 48 h exposure
# Method: as §1
# [5] = test system: mouse melanoma cancer cell line (B16); test: as above; type: cell-based; conditions: B16 cells, 48 h exposure
# Method: as §1
# [6] = Homo sapiens, MCF7, MCF-7 cells
SMILES,(ΔTm ° C.) after incubation at 37° C. for 0 h (calf thymus DNA (CT-DNA)) [°C],(ΔTm ° C.) after incubation at 37° C. for 18 h (calf thymus DNA (CT-DNA)) [°C],"IC50 [1, 6] [nM]",IC50 ([2]; Homo sapiens) [nM],IC50 ([3]; Homo sapiens) [nM],IC50 ([4]; Homo sapiens) [nM],IC50 ([5]; Mus musculus) [nM],"IC50 ([2]; Homo sapiens, HeLa, 48 h) [nM]","IC50 ([3]; Homo sapiens, HepG2, 48 h) [nM]",IC50 [3] [nM],IC50 ([1]; MCF-7 cells) [nM],IC50 [2] [nM],IC50 [4] [nM],IC50 [5] [nM]
"O=C(c1nc(-c2ccccc2)n2ccccc12)N1CCNCC1 [4a, (3-phenylimidazo[1,5-a]pyridin-1-yl)(piperazino)methanone]",1.0,1.2,> 100000,> 100000,> 100000,> 100000,> 100000,–,–,–,–,–,–,–
"COc1ccc(-c2nc(C(=O)N3CCNCC3)c3ccccn23)cc1 [4b, [3-(4-methoxyphenyl)imidazo[1,5-a]pyridin-1-yl](piperazino)methanone]",1.1,1.2,> 100000,> 100000,> 100000,> 100000,> 100000,–,–,–,–,–,–,–
"O=C(c1nc(-c2ccc(C(F)(F)F)cc2)n2ccccc12)N1CCNCC1 [4c, piperazino3-[4-(trifluoromethyl)phenyl]imidazo[1,5-a]pyridin-1-ylmethanone]",0.1,0.4,> 100000,> 100000,> 100000,> 100000,> 100000,–,–,–,–,–,–,–
"COc1cc2c(cc1OCCCN1CCN(C(=O)c3nc(-c4ccccc4)n4ccccc34)CC1)N=C[C@@H]1CCCN1C2=O [7a, (11aS)-7-methoxy-8-(3-4-[(3-phenylimidazo[1,5-a]pyridin-yl)carbonyl]piperazinopropoxy)-2,3,5,11a-tetrahydro-1H-benzo[e]pyrrolo[1,2-a]azepin-5-one]",6.0,8.9,1200,–,–,7100,2800,2100,2700,–,–,–,–,–
"COc1cc2c(cc1OCCCCN1CCN(C(=O)c3nc(-c4ccccc4)n4ccccc34)CC1)N=C[C@@H]1CCCN1C2=O [7b, (11aS)-7-methoxy-8-(4-4-[(3-phenylimidazo[1,5-a]pyridin-yl)carbonyl]piperazinobutoxy)-2,3,5,11a-tetrahydro-1H-benzo[e]pyrrolo[1,2-a]azepin-5-one]",6.0,8.9,2870,–,–,15900,2670,1240,2830,–,–,–,–,–
COc1cc2c(cc1OCCCCCN1CCN(C(=O)c3nc(-c4ccccc4)n4ccccc34)CC1)N=C[C@@H]1CCCN1C2=O [7c],7.0,9.0,2120,–,–,–,1870,1660,2700,3860,–,–,–,–
COc1cc2c(cc1OCCCCCCN1CCN(C(=O)c3nc(-c4ccccc4)n4ccccc34)CC1)N=C[C@@H]1CCCN1C2=O [7d],7.0,8.0,3310,–,–,12400,1490,3970,3060,–,–,–,–,–
"COc1cccc2c1C(=O)c1c(O)c3c(c(O)c1C2=O)C[C@@](O)(C(=O)CO)C[C@@H]3O[C@H]1C[C@H](N)[C@H](O)[C@H](C)O1 [ADR, adiramycin]",–,–,–,–,–,–,–,–,–,1850,1600,130,2900,340
"C1=CC2=CN=c3ccccc3=CN2C1 [DC-81, pyrrolo[2,1-c][1,4]benzodiazepine]",0.3,0.7,2190,–,–,380,1830,2140,2200,–,–,–,–,–
